# From patent publication US20190264229A1, “DEVICE, SYSTEM AND METHOD FOR INTRACELLULAR DELIVERY OF SUBSTANCES” (Agency for Science, Technology and Research, priority 2016, published 2019)
# Test system: HEK293T cells
# Experiment: Pipette tip filter loading of fluorescein-labeled cargo into HEK293T cells, flow cytometry
# Format: cell-based
# Conditions: pipetted through the filter vs not passed through the filter, 0.4 million HEK293T, 12 hours recovery
# Procedure: To establish if other cargoes can be loaded with this method, 0.4 million HEK293T cells were mixed with 50 pmoles of fluorescein-labeled 21nt DNA oligonucleotide, 50 pmoles of fluorescein-labeled 21nt double-stranded siRNA, or 5 μg of fluorescein-dextran (MW 3000-5000) in 500 μl of OptiMEM. The mixture was aspirated and dispensed through the filter with the 1 ml pipette in triplicates. The mixture was then transferred into 2 ml of regular DMEM medium and the cells allowed to recover for 12 hours at 37° C. After which, the cells were washed 3 times with DMEM and collected for flow cytometry.
substance,measurement,value
Dextran,percentage of cells having a higher than background fluorescence,clearly higher
